Here are results for 36 molecules from PubChem BioAssay AID434957 (The Scripps Research Institute Molecular Screening Center, 2010).

The source made the active and inactive calls.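 How the source made its calls: active means IC50, the dose halving KLF5 reporter signal, at most 10 µM; inactive means IC50 above 10 µM or none.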

The test deals with DLD-1 KLF5 promoter luciferase reporter, luminescence. Kind of test: KLF5 luciferase suppression by analogs – luminescence, DLD-1 cells, round 1, SAR follow-up (AID 434957).
Regarding `Cc1ccc(-n2nc3ccc(NC(=O)COc4ccc(C)c(C)c4)cc3n2)cc1`, the IC50 was > 39.8 µM (inactive).

On to `CC(C)(C)c1ccc(-c2coc(CCC(=O)Nc3ccccn3)n2)cc1`, for which the IC50 is 19.4 µM (inactive).

On to `CC(C)c1ccc2nc(Nc3nc4ccc(F)cc4s3)sc2c1`, for which the IC50 is > 39.8 µM (inactive).

As for `CC(C)(C)c1ccc(-c2noc(CCC(=O)NCc3ccccc3)n2)cc1`, the IC50 was 3.57 µM.

For the molecule `Cc1ccc(OCC(=O)Nc2ccc3nn(-c4cccc(C(F)(F)F)c4)nc3c2)cc1C`, the IC50 is > 39.8 µM (inactive).

Turning to `Cc1ccc(-n2nc3cc(Cl)c(NC(=O)c4cccnc4)cc3n2)cc1`, the IC50 is > 39.8 µM (inactive).

On to `CC(C)C(=O)Nc1ccc2nn(-c3ccc(Cl)cc3)nc2c1`, for which the IC50 is 26.3 µM (inactive).

Regarding `CC(C)(C)c1ccc(-c2noc(CCC(=O)Nc3ccc(N4CCOCC4)nc3)n2)cc1`, the IC50 was 0.267 µM.

As for `O=C(COc1ccccc1)Nc1ccc2nn(-c3cccc(Cl)c3)nc2c1`, the IC50 is > 39.8 µM (inactive).

Regarding `CC(C)(C)c1ccc(-c2noc(CCC(=O)Nc3ccccc3)n2)cc1`, the IC50 was 0.116 µM.

In the case of `CC(C)(C)c1ccc(-c2noc(CCCC(=O)Nc3ccccc3Cl)n2)cc1`, the IC50 was 0.806 µM.

For `CC(=O)Nc1ccc2nc(Nc3nc4ccc(F)cc4s3)sc2c1`, the IC50 is > 39.8 µM (inactive).

On to `CCOc1ccc(NC(=O)CCc2nc(-c3ccc(C(C)(C)C)cc3)no2)cc1`, for which the IC50 is 0.285 µM.

Regarding `CCNC(=O)c1ccc2nc(Nc3nc4ccc(F)cc4s3)sc2c1`, the IC50 is 0.0562 µM.

On to `CC(C)(C)C(=O)Nc1ccc2nn(-c3ccc(F)cc3)nc2c1`, for which the IC50 is 4.56 µM.

For `Nc1cc2nn(-c3ccccc3)nc2cc1Cl`, the IC50 was > 39.8 µM (inactive).

With `CCNC(=O)c1sc(NC(=O)c2ccc3ncsc3c2)nc1C`, the IC50 was > 39.8 µM (inactive).

In the case of `CC(C)(C)C(=O)Nc1ccc2nn(-c3ccccc3)nc2c1`, the IC50 is 3.18 µM.

In the case of `CC(=O)c1sc(NC(=O)c2ccc3ncsc3c2)nc1C`, the IC50 was > 39.8 µM (inactive).

For `CC(C)(C)c1ccc(-c2noc(CCc3nc4ccccc4[nH]3)n2)cc1`, the IC50 was > 39.8 µM (inactive).

As for `CC1(C)CC(=O)c2sc(NC(=O)c3ccc4ncsc4c3)nc2C1`, the IC50 was > 39.8 µM (inactive).

Regarding `COc1ccc(-n2nc3cc(C)c(NC(=O)C(C)C)cc3n2)cc1`, the IC50 was > 39.8 µM (inactive).

`Cc1cccc(NC(=O)CCc2nc(-c3ccc(C(C)(C)C)cc3)no2)c1`: the IC50 is 0.229 µM.

For the molecule `CCOc1ccc2nc(Nc3nc4ccc(F)cc4s3)sc2c1`, the IC50 is > 39.8 µM (inactive).

Take `COc1ccc(-n2nc3ccc(NC(=O)C4CCN(S(=O)(=O)c5ccc(Cl)cc5)CC4)cc3n2)cc1`: the IC50 is > 39.8 µM (inactive).

Consider `COc1ccc2nc(Nc3nc4ccc(F)cc4s3)sc2c1`, for which the IC50 is > 39.8 µM (inactive).

Take `CN(C)C(=O)c1ccc2nc(Nc3nc4ccc(F)cc4s3)sc2c1`: the IC50 is 0.0131 µM.

With `CS(=O)(=O)c1ccc2nc(Nc3nc4ccc(F)cc4s3)sc2c1`, the IC50 was > 39.8 µM (inactive).

`Cc1nc(NC(=O)c2ccc3ncsc3c2)sc1C(=O)N(C)C`: the IC50 is > 39.8 µM (inactive).

Take `CC(=O)c1sc(NC(=O)c2ccc3ncsc3c2)nc1-c1ccccc1`: the IC50 was > 39.8 µM (inactive).

With `O=C(Cc1ccccc1)Nc1cc2nn(-c3ccccc3)nc2cc1Cl`, the IC50 was 7.96 µM.

`O=C(Nc1cc2nn(-c3ccccc3)nc2cc1Cl)C1COc2ccccc2C1` (stereo unspecified): the IC50 is > 39.8 µM (inactive).

Regarding `CC(C)(C)c1ccc(-c2noc(CCC(=O)Nc3ccccn3)n2)cc1`, the IC50 is 0.159 µM.

`CC(C)(C)c1ccc(-c2noc(CCC(=O)Nc3ccncc3)n2)cc1`: the IC50 was 0.107 µM.

`CC(NC(=O)c1ccccc1)c1nc(-c2ccc(C(C)(C)C)cc2)no1` (stereo unspecified): the IC50 was > 39.8 µM (inactive).

For the molecule `COc1ccc(-n2nc3ccc(NC(=O)C(C)(C)C)cc3n2)cc1`, the IC50 was > 39.8 µM (inactive).
